14 molecules from US7713994B2 (Wyeth LLC, priority 2005, dated 2010) can be followed below.

Where two headings read alike, the source gives them in different places. A value given as a limit tells only on which side of the number the result lay.

For assay [1], the system named is HCT-116. The experiment in a line: Cytotoxicity assay (SRB), HCT-116. The class given is cell-based. The conditions noted are these: HCT116 cells, SRB, read-out: In Vitro Cellular Activity IC50 HCT116. In outline:
(§1)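 Protein staining with sulforhodamine B after cold TCA fixation served as the survival endpoint (A540, relative to untreated cells). Before staining, cells were incubated with compound at 37 °C, 7% CO2 for 3 days, or 6 days for BT474.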

For assay [2], the target named is T1, cyclin D1/cdk 4 enzyme (Homo sapiens, UniProt P11802).
T1 construct: made in house; host or cells: Sf9 insect cells, recombinant baculovirus
T1 sequence (P11802 whole entry, species assumed): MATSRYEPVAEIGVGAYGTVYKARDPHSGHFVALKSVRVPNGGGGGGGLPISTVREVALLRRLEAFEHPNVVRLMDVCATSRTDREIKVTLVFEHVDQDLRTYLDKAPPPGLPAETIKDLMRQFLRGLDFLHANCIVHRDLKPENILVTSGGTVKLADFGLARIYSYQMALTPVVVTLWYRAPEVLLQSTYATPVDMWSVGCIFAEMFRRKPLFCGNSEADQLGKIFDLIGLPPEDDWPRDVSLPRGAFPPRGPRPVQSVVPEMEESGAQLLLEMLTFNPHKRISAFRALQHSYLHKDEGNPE
T1 sequence (P24385 whole entry partner, species assumed): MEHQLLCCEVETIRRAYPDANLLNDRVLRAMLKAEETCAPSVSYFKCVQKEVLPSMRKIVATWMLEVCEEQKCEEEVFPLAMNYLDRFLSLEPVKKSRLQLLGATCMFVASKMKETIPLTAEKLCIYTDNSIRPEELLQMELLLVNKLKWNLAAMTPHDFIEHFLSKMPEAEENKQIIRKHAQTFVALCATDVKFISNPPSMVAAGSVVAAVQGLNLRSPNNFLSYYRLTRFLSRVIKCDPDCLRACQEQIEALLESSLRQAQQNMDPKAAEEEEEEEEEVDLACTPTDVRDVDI
The experiment in a line: CDK4 ELISA kinase assay (phospho-Rb ser 795 detection). The format is biochemical. In outline:
(§2)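 GST-Rb C-terminal fragment coated on wells; kinase reaction: 200 μM ATP, 0.5 mg/ml BSA, HEPES pH 7.5, 10 mM MgCl2, baculovirus/Sf9 cyclin-CDK, 30° C, 1 h. Readout anti-phospho-Rb Ser795, HRP, TMB, A450. Test compound 10 ug/ml final.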
For orientation: In an ELISA, binding on a coated surface is turned into a signal by an enzyme label.

The test system of assay [3] is LoVo. As to the kind of experiment: Cytotoxicity assay (SRB), LoVo. The format is cell-based. Conditions: LoVo cells, SRB, read-out: In Vitro Cellular Activity IC50 LOVO. In outline:
as §1

Assay [4] relates to BT474. As to the kind of experiment: Cytotoxicity assay (SRB), BT474. The format is cell-based. The method in brief:
as §1

Assay [5] deals with MCF-7. The experiment in a line: Cytotoxicity assay (SRB), MCF-7. Conditions: MCF-7 cells, SRB, read-out: In Vitro Cellular Activity IC50 MCF-7. The class given is cell-based. In outline: as §1
The target of assay [6] is T2, cyclin B/CDK1 enzyme (Homo sapiens, UniProt P06493).
T2 construct: purchased New England BioLabs; host or cells: Sf9 insect cells, recombinant baculovirus
T2 sequence (P06493 whole entry): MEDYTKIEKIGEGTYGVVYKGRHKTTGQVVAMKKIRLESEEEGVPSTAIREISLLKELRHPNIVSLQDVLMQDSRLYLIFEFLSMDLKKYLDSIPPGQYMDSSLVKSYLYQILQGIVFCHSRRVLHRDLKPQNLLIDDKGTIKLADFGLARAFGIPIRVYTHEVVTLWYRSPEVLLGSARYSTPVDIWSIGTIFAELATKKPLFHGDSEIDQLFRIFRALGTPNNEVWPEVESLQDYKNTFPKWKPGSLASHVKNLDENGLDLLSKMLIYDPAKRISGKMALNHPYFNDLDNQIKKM
T2 sequence (P14635 whole entry partner): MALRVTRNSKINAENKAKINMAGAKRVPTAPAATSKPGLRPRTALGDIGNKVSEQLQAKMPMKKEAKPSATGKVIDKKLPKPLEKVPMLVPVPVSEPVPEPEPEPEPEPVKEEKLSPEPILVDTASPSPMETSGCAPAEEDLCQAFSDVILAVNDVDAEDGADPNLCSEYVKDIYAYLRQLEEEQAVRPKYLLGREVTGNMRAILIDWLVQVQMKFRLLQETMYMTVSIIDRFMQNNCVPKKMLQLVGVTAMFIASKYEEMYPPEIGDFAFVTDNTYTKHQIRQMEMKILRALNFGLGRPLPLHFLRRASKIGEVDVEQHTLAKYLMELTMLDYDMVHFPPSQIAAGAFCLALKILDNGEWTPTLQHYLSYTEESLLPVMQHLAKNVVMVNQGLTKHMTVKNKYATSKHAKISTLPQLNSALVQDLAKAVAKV
The experiment in a line: CDK1 ELISA kinase assay (phospho-Rb ser 795 detection). The format is biochemical. The method in brief:
as §2

In assay [7] the target is T3, cyclin E/CDK2 enzyme (Homo sapiens, UniProt P24941).
T3 construct: made in house; host or cells: Sf9 insect cells, recombinant baculovirus
The experiment in a line: CDK2 ELISA kinase assay (phospho-Rb ser 795 detection). The format is biochemical. The method in brief: as §2

The mark [8] stands for this setting: Homo sapiens, HCT-116, 72 h, three days.
[9] abbreviates: In Vitro Enzyme Assays, 200 μM ATP, read-out: CDK4 IC50.
Where [10] appears, read: Homo sapiens, LoVo, 72 h, three days.
[11] abbreviates: Homo sapiens, BT-474, 144 h, BT474 cells, SRB, 6 days; read-out: In Vitro Cellular Activity IC50 BT474.
Setting [12] is: Homo sapiens, MCF7, 72 h, three days.
Setting [13] is: In Vitro Enzyme Assays, read-out: CDK1 IC50.
Where [14] appears, read: In Vitro Enzyme Assays, read-out: CDK2 IC50.
The mark [15] stands for this setting: Homo sapiens, HCT-116, 72 h, 3 days.
[16] abbreviates: In Vitro Enzyme Assay, cyclin D1/cdk 4, read-out: CDK4 IC50.
The mark [17] stands for this setting: Homo sapiens, LoVo, 72 h, 3 days.
The mark [18] stands for this setting: Homo sapiens, BT-474, 144 h, BT474 cells, 6 days, SRB; read-out: In Vitro Cellular Activity IC50 BT474.
Setting [19] is: Homo sapiens, MCF7, 72 h, 3 days.
The mark [20] stands for this setting: In Vitro Enzyme Assay, cyclin B/CDK1, read-out: CDK1 IC50.
Where [21] appears, read: In Vitro Enzyme Assay, cyclin E/CDK2, read-out: CDK2 IC50.

As a reminder, the IC50 is the concentration at which inhibition is half-maximal. Regarding `CN1CCC(Oc2ccc(N/C=C3\C(=O)NC(=O)c4ccc(Br)cc43)cc2)C1` (centres unmarked) [Example 276, (4Z)-6-Bromo-4-[({4-[(1-methylpyrrolidin-3-yl)oxy]phenyl}amino)methylene]isoquinoline-1,3(2H,4H)-dione], the IC50 in assay [1] (setting [8]) is 3.9 µM; in assay [2] (setting [9]), 42.5 µM; in assay [3] (setting [10]), 6.2 µM; in assay [4] (setting [11]), 8.3 µM; in assay [5] (setting [12]) it was 4.4 µM; in assay [6] (setting [13]), over 50 µM. Further, the IC50 in assay [7] (setting [14]) is over 50 µM.

As to `O=C1NC(=O)c2ccc(-c3ccc(Cl)cc3)cc2C1=CNCc1ccc(O)c(O)c1` [Example 778, 6-(4-Chloro-phenyl)-4-[(3,4-dihydroxy-benzylamino)-methylene]-4H-isoquinoline-1,3-dione], the IC50 came to 11.9 µM in assay [1] (setting [15]); 0.12 µM in assay [2] (setting [16]); 9.6 µM in assay [3] (setting [17]); 27.3 µM in assay [4] (setting [18]); 10.3 µM in assay [5] (setting [19]); 27.7 µM in assay [6] (setting [20]). For the same molecule, in assay [7] (setting [21]), the IC50 is 5.6 µM.

With `CN1CCC(N(C)CC2CCN(c3ccc(N/C=C4\C(=O)NC(=O)c5ccc(I)cc54)cc3)CC2)C1` (centres unmarked) [Example 455, (4Z)-6-Iodo-4-({[4-(4-{[methyl(1-methylpyrrolidin-3-yl)amino]methyl}piperidin-1-yl)phenyl]amino}methylene)isoquinoline-1,3(2H,4H)-dione], the IC50 is 2.4 µM in assay [1] (setting [15]); 5 µM in assay [2] (setting [9]); 3.3 µM in assay [3] (setting [17]); 3.1 µM in assay [4] (setting [18]); 3.1 µM in assay [5] (setting [19]); over 50 µM in assay [6] (setting [13]). In addition, the IC50 in assay [7] (setting [14]) is over 50 µM.

With `O=C1NC(=O)c2ccc(-c3ccsc3)cc2/C1=C/Nc1ccc(N2CCN(CC3CC3)CC2)nc1` [Example 418, (4Z)-4-[({6-[4-(Cyclopropylmethyl)piperazin-1-yl]pyridin-3-yl}amino)methylene]-6-(3-thienyl)isoquinoline-1,3(2H,4H)-dione], the IC50 is 1.4 µM in assay [1] (setting [15]); 0.02 µM in assay [2] (setting [9]); 2.4 µM in assay [3] (setting [17]); 2.7 µM in assay [4] (setting [18]); 3.2 µM in assay [5] (setting [19]); over 50 µM in assay [6] (setting [13]). In addition, in assay [7] (setting [14]), the IC50 was over 50 µM.

For `O=C1NC(=O)c2ccc(Br)cc2/C1=C/NCCCN1CCOCC1` [Example 310, (Z)-6-Bromo-4-((3-morpholinopropylamino)methylene)isoquinoline-1,3(2H,4H)-dione], the IC50 in assay [1] (setting [8]) was 21 µM; in assay [2] (setting [9]), 9.4 µM; in assay [3] (setting [10]), 17 µM; in assay [4] (setting [11]), 27 µM; in assay [5] (setting [12]), 11 µM; in assay [6] (setting [13]), over 50 µM. Moreover, the IC50 in assay [7] (setting [14]) is over 50 µM.

`O=C1NC(=O)c2ccc(-n3cccc3)cc2/C1=C/Nc1ccc(CN2CCCC2)cc1` [Example 72]: the IC50 in assay [1] (setting [8]) was 3.4 µM; in assay [2] (setting [9]) it was 0.19 µM; in assay [3] (setting [10]), 3.4 µM; in assay [4] (setting [11]) it was 4.1 µM; in assay [5] (setting [12]), 2.6 µM; in assay [6] (setting [13]), over 50 µM. The IC50 in assay [7] (setting [14]) is over 50 µM.

Turning to `O=C1NC(=O)c2ccc(I)cc2/C1=C/Nc1ccc(N2CCC[C@H]2CO)c(F)c1` (stereo in doubt) [Example 426, 4-{[3-Fluoro-4-(2-hydroxymethyl-pyrrolidin-1-yl)-phenylamino]-methylene}-6-iodo-4H-isoquinoline-1,3-dione], the concentration for half-maximal inhibition (IC50) in assay [1] (setting [15]) was 1.6 µM; in assay [2] (setting [9]) it was 10 µM; in assay [3] (setting [17]), 2.2 µM; in assay [4] (setting [18]), 4.5 µM; in assay [5] (setting [19]), 2.8 µM; in assay [6] (setting [13]), over 50 µM. Further, the IC50 in assay [7] (setting [14]) was found to be 31 µM.

Consider `CN1CCN(c2ccc(NC=C3C(=O)NC(=O)c4ccc(C=Cc5cnccn5)cc43)cc2)CC1` [Example 678, 4-{[4-(4-Methyl-piperazin-1-yl)-phenylamino]-methylene}-6-(2-pyrazin-2-yl-vinyl)-4H-isoquinoline-1,3-dione], for which the IC50 is 3.5 µM in assay [1] (setting [15]); 1.16 µM in assay [2] (setting [16]); 6.1 µM in assay [3] (setting [17]); 9.1 µM in assay [4] (setting [18]); 10.5 µM in assay [5] (setting [19]); 14.4 µM in assay [6] (setting [20]). In addition, in assay [7] (setting [21]), the IC50 was over 50 µM.

Regarding `CC1CCCN1Cc1ccc(NC=C2C(=O)NC(=O)c3ccccc32)cc1` (centres unmarked) [Example 617, 4-{[4-(2-Methyl-pyrrolidin-1-ylmethyl)-phenylamino]-methylene}-4H-isoquinoline-1,3-dione], the IC50 is 7.6 µM in assay [1] (setting [15]); 16.5 µM in assay [2] (setting [16]); 14 µM in assay [3] (setting [17]); 18.5 µM in assay [4] (setting [18]); 11.2 µM in assay [5] (setting [19]); over 50 µM in assay [6] (setting [20]). Also, the IC50 in assay [7] (setting [21]) turned out to be 21.3 µM.

Take `COc1ccc(C(=O)NN/C=C2\C(=O)NC(=O)c3ccc(Br)cc32)cc1O` [Example 202, N′-[(Z)-(6-Bromo-1,3-dioxo-2,3-dihydroisoquinolin-4(1H)-ylidene)methyl]-3-hydroxy-4-methoxybenzohydrazide]: the IC50 was over 50 µM in assay [1] (setting [8]); 33.2 µM in assay [2] (setting [9]); over 50 µM in assay [3] (setting [10]); 18 µM in assay [4] (setting [11]); over 50 µM in assay [5] (setting [12]); over 50 µM in assay [6] (setting [13]). Further, the concentration for half-maximal inhibition (IC50) in assay [7] (setting [14]) is over 50 µM.

With `CN(C)CCS(=O)(=O)c1ccc(N/C=C2\C(=O)NC(=O)c3ccc(Br)cc32)cc1` [Example 243], the IC50 was found to be 5 µM in assay [1] (setting [8]); 1.2 µM in assay [2] (setting [9]); 12 µM in assay [3] (setting [10]); 13 µM in assay [4] (setting [11]); 5 µM in assay [5] (setting [12]); 12.3 µM in assay [6] (setting [13]). The IC50 in assay [7] (setting [14]) is 1.9 µM.

`CN(C)C1CCN(Cc2ccc(N/C=C3\C(=O)NC(=O)c4ccc(-c5ccoc5)cc43)cc2)C1` (centres unmarked) [Example 513, (4Z)-4-{[(4-{[3-(Dimethylamino)pyrrolidin-1-yl]methyl}phenyl)amino]methylene}-6-(3-furyl)isoquinoline-1,3(2H,4H)-dione]: the IC50 was 1.54 µM in assay [1] (setting [15]); 0.17 µM in assay [2] (setting [16]); 3.45 µM in assay [3] (setting [17]); 1.84 µM in assay [4] (setting [18]); 2.53 µM in assay [5] (setting [19]); over 50 µM in assay [6] (setting [20]). Moreover, the IC50 in assay [7] (setting [21]) worked out at 13.2 µM.

Take `CC(C)CC(=O)Nc1ccc(CN/C=C2\C(=O)NC(=O)c3ccccc32)cc1` [Example 593, N-(4{[(1,3-Dioxo-2,3-dihydro-1H-isoquinolin-4-ylidenemethyl)-amino]-methyl}-phenyl)-3-methyl-butyramide]: the concentration for half-maximal inhibition (IC50) in assay [1] (setting [15]) was 13.8 µM; in assay [2] (setting [16]), over 50 µM; in assay [3] (setting [17]) it was 35.8 µM; in assay [4] (setting [18]), 26.6 µM; in assay [5] (setting [19]) it was 25.9 µM; in assay [6] (setting [20]) it was 44.5 µM. Also, in assay [7] (setting [21]), the IC50 is over 50 µM.

With “6-Bromo-4-[(4-methoxy-phenylamino)-methylene]-1,4-dihydro-2H-isoquinolin-3-one & 8-Bromo-4-[(4-methoxy-phenylamino)-methylene]-1,4-dihydro-2H-isoquinolin-3-one [Example 844]”, the half-maximal inhibitory concentration (IC50) in assay [1] (3 days) is 28 µM; in assay [2] (setting [16]) it was 34.7 µM; in assay [3] (3 days), 26.7 µM; in assay [4] (BT474 cells, 6 days, SRB; read-out: In Vitro Cellular Activity IC50 BT474), 27.1 µM; in assay [5] (3 days), 26.1 µM; in assay [6] (setting [20]), over 50 µM. In addition, the IC50 in assay [7] (setting [21]) was over 50 µM.
